ChEMBL document CHEMBL1201862, “PubChem BioAssay data set” (2004)
The source made the active and inactive calls.

Columns and labels:
[1] = Luminescence Cell-Based Dose Retest to Confirm Inhibitors of Cancer Stem Cells. [Related pubchem assays (depositor defined):AID2717, AID2721]; assay type: functional; details: Homo sapiens
[2] = molecular target: Neurotensin receptor type 1 (Homo sapiens, UniProt P30989); assay type: functional;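 note: Image-based confirmatory dose-response assay measuring agonist activity at NTR1; NTR1-expressing U2OS osteosarcoma cells imaged for beta-arrestin GFP spot formation; agonist potency where compounds increase beta-arrestin recruitment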
[3] = molecular target: T1, Microphthalmia-associated transcription factor (Homo sapiens, UniProt O75030); test: TRPM1 promoter luciferase signal decrease, dose response, MITF inhibitor project, cell-based, SK-MEL-5, cherry-picked, set 3 (AID 493073); assay type: functional
T1 sequence (O75030 whole entry): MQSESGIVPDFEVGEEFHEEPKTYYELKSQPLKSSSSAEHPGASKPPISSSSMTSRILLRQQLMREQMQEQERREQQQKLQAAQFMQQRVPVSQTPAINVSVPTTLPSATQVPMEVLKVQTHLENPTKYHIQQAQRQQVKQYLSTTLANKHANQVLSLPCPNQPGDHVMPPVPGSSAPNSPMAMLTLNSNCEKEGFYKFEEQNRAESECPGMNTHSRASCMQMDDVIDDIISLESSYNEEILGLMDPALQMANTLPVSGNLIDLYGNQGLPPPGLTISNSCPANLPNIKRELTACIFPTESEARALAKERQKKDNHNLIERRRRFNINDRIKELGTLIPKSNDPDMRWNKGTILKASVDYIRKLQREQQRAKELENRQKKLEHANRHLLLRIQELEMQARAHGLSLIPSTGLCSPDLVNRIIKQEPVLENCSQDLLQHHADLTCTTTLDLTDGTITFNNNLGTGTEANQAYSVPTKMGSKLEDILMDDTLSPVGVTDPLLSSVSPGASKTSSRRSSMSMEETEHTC

[4] = molecular target: Heat shock protein HSP 90-alpha (Homo sapiens, UniProt P07900); assay type: functional, organism-based
Melanocortin receptor 4 = Melanocortin receptor 4 (Homo sapiens, UniProt P32245); test: MC4R antagonist potency on cAMP, dose response, cell-based, TR-FRET, biased antagonists (AID 602298); assay type: functional;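 note: antagonist potency against agonist-stimulated cAMP production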
[5] = nonselective inhibitors of cellular cAMP signaling, dose response, counter-screen for MC4R biased antagonist project, cell-based, TR-FRET cAMP detection (AID 602305); assay type: functional;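 note: U2OS cells stimulated with forskolin near its EC80 as the cAMP inducer; potency is for inhibition of forskolin-stimulated cAMP signaling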
[6] = molecular target: T2, Rac GTPase-activating protein 1 (Homo sapiens, UniProt Q9H0H5); test: MgcRacGAP GTPase-activating activity inhibitors, confirmation, biochemical, ADP Hunter fluorescence, primary and confirmatory (AID 624330); assay type: functional
T2 sequence (Q9H0H5 whole entry): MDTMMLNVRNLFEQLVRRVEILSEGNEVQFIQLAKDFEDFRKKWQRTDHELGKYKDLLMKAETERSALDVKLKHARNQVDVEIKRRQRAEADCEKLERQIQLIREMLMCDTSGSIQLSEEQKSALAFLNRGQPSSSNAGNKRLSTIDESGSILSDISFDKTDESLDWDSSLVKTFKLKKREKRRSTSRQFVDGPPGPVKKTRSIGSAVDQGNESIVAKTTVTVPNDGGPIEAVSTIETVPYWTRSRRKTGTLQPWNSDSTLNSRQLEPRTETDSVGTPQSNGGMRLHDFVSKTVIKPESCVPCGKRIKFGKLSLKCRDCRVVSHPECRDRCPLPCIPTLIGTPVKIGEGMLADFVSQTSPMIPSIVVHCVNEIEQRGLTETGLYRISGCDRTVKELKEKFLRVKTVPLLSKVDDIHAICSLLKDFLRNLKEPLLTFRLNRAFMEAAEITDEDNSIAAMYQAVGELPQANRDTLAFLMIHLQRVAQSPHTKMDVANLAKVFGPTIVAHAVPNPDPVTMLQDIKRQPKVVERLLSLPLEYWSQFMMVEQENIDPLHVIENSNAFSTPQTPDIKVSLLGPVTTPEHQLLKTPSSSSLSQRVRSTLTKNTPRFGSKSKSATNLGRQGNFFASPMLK

[7] = molecular target: T3, Heat shock factor protein 1 (Mus musculus, UniProt P38532); test: inhibition of MG132-induced HSE-luciferase signal, confirmation, cell-based, NIH3T3, luminescence, dose retest (AID 2382); assay type: functional;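 note: NIH3T3 fibroblasts with HSF1-driven luciferase reporter stressed by proteasome inhibitor MG132; luminescence from HSF1-driven luciferase expression after 8 hours of MG132 stress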
T3 sequence (P38532 whole entry): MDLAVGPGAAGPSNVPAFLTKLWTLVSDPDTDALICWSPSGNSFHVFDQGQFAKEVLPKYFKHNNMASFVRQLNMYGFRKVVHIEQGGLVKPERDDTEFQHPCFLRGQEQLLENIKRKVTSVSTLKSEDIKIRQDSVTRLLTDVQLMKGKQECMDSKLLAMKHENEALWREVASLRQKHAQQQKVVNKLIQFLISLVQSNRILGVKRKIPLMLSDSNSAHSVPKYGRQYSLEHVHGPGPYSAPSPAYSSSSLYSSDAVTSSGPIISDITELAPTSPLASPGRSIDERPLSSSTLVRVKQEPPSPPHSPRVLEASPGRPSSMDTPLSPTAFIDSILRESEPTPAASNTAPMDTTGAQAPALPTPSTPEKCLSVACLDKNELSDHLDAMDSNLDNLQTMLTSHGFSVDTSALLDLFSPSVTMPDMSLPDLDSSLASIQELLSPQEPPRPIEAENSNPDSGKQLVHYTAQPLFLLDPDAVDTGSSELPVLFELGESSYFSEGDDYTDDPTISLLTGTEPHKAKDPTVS

[8] = molecular target: T4, Short transient receptor potential channel 4 (Mus musculus, UniProt Q9QUQ5); test: mouse TRPC4 channel inhibitors, dose response, cell-based, HEK293 TRPC4/mu-opioid, Fluo-4 calcium (AID 434942); assay type: functional;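 note: potency of inhibitors blocking the TRPC4 calcium response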
T4 sequence (Q9QUQ5 whole entry): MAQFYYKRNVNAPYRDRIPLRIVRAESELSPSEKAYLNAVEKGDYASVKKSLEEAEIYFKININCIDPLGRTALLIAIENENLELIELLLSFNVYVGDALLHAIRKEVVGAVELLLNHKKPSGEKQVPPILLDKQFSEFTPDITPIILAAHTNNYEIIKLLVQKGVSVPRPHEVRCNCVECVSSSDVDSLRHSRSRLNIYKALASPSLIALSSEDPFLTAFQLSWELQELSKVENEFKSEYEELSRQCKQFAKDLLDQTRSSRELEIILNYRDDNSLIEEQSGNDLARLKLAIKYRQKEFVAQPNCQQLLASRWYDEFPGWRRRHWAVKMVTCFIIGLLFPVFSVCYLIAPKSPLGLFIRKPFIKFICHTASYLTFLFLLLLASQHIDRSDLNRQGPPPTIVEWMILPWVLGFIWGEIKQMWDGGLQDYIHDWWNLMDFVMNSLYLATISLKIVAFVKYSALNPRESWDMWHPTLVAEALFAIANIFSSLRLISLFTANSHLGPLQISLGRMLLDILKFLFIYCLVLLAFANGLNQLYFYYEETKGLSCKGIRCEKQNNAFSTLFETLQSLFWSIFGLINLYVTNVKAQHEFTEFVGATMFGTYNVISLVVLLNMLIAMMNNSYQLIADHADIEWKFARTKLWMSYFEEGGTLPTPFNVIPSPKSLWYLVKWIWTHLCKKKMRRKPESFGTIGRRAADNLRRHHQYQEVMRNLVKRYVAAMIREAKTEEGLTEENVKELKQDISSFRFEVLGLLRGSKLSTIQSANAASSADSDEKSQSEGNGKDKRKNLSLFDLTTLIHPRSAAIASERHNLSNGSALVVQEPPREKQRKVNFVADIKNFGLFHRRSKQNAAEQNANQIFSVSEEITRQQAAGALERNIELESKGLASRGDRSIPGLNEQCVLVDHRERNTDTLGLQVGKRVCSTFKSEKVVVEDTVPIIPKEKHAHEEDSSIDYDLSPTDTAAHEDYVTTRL

Chain of Melanocortin receptor 4 (P32245 whole entry): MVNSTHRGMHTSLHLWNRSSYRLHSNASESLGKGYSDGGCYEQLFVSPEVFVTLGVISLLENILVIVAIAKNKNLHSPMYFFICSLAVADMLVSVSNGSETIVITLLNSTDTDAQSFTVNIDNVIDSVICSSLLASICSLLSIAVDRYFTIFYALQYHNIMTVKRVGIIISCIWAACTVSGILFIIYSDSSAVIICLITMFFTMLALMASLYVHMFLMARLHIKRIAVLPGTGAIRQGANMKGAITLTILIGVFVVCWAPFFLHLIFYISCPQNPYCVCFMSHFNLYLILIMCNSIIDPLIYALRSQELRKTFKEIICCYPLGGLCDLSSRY
Chain of Neurotensin receptor type 1 (P30989 whole entry): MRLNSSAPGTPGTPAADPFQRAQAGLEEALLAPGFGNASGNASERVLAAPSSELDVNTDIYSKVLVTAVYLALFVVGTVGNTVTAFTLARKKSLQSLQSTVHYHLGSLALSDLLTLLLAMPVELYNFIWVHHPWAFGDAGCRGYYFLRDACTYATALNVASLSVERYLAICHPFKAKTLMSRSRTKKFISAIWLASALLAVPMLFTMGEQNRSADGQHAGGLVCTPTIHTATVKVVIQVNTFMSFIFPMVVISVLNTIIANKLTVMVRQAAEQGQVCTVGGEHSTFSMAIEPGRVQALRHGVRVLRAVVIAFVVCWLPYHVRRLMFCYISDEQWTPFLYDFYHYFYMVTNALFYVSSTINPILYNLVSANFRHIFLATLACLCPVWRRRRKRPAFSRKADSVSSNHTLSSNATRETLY

| EC50 [7] | EC50 [8] | Compound | AC50 [1] | EC50 [2] | AC50 [3] | AC50 [4] | IC50 (Melanocortin receptor 4) | IC50 [5] | IC50 [6] |
| --- | --- | --- | --- | --- | --- | --- | --- | --- | --- |
| – | – | CN(C)c1ccc(-n2cccc2/C=C/[N+](=O)[O-])cc1 | 2.93 µM (active) | 9.06 µM (active) | 10.2 µM (active) | 4.36 µM (active) | 12.1 µM (inactive) | > 64.6 µM (inactive) | 43.2 µM (active) |
| > 195 µM (not active) | 1.06 µM (active) | Cc1ccc(OCc2cc(C(=O)N(C)CCc3nc4ccccc4[nH]3)no2)cc1C | – | – | – | – | – | – | – |
| – | 0.267 µM (active) | Cc1ccc(S(=O)(=O)Nc2cccc(C(=O)NCC(c3ccco3)N3CCCCC3)c2)cc1F (stereo not given) | – | – | – | – | – | – | – |
